According to ChEMBL document CHEMBL4376823, “The discovery of a potent and selective third-generation EGFR kinase inhibitor as a therapy for EGFR L858R/T790M double mutant non-small cell lung cancer” (Eur J Med Chem, 2019):
Activity calls are given as the source filed them.

What was measured:
[1] = system: NCI-H1975; experiment: Induction of apoptosis in human NCI-H1975 cells assessed as reduction in mitochondrial membrane potential at 5 to 50 nM incubated for 24 hrs by JC-1 staining based laser scanning confocal microscopy; assay type: functional, cell-based
[2] = system: NCI-H1975; experiment: Induction of apoptosis in human NCI-H1975 cells assessed as upregulation of Bad at 10 to 50 nM incubated for 24 hrs by Western blot analysis; assay type: functional, cell-based
[3] = system: NCI-H1975; experiment: Induction of apoptosis in human NCI-H1975 cells assessed as upregulation of Bax at 10 to 50 nM incubated for 24 hrs by Western blot analysis; assay type: functional, cell-based
[4] = system: NCI-H1975; experiment: Induction of apoptosis in human NCI-H1975 cells assessed as downregulation of Bcl-2 at 10 to 50 nM incubated for 24 hrs by Western blot analysis; assay type: functional, cell-based
[5] = system: Epidermal growth factor receptor (Homo sapiens), P00533 [L858R,T790M]; experiment: Inhibition of EGFR T790M/L858R mutant in human NCI-H1975 cells assessed as reduction in EGFR Y1068 phosphorylation at 5 to 100 nM incubated for 4 hrs by Western blot analysis; assay type: cell-based
[6] = system: Epidermal growth factor receptor (Homo sapiens), P00533 [L858R,T790M]; experiment: Inhibition of EGFR T790M/L858R mutant in human NCI-H1975 cells assessed as reduction in AKT phosphorylation at 5 to 100 nM incubated for 4 hrs by Western blot analysis; assay type: cell-based
[7] = system: Epidermal growth factor receptor (Homo sapiens), P00533 [L858R]; experiment: Inhibition of EGFR L858R mutant in human PC9 cells assessed as reduction in EGFR Y1068 phosphorylation at 5 to 100 nM incubated for 4 hrs by Western blot analysis; assay type: cell-based
[8] = system: Epidermal growth factor receptor (Homo sapiens), P00533 [L858R]; experiment: Inhibition of EGFR L858R mutant in human PC9 cells assessed as reduction in AKT phosphorylation at 5 to 100 nM incubated for 4 hrs by Western blot analysis; assay type: cell-based
[9] = target: T1, Epidermal growth factor receptor (Homo sapiens, UniProt P00533); experiment: Inhibition of EGFR in human NCI-H292 cells assessed as reduction in EGFR Y1068 phosphorylation at 5 to 100 nM incubated for 4 hrs by Western blot analysis; assay type: cell-based
[10] = target: T1, Epidermal growth factor receptor; experiment: Inhibition of EGFR in human NCI-H292 cells assessed as reduction in AKT phosphorylation at 5 to 100 nM incubated for 4 hrs by Western blot analysis; assay type: cell-based
[11] = system: NCI-H1975; experiment: Antitumor activity against human NCI-H1975 cells xenografted in ig dosed BALB/c mouse assessed as tumor growth inhibition for one week; assay type: functional, organism-based
[12] = system: Epidermal growth factor receptor (Homo sapiens), P00533 [L858R,T790M]; experiment: Inhibition of EGFR T790M/L858R mutant in human NCI-H1975 cells assessed as reduction in EGFR Y1068 phosphorylation incubated for 4 hrs by Western blot analysis; assay type: cell-based
[13] = system: Epidermal growth factor receptor (Homo sapiens), P00533 [L858R,T790M]; experiment: Inhibition of EGFR T790M/L858R mutant in human NCI-H1975 cells assessed as reduction in AKT phosphorylation incubated for 4 hrs by Western blot analysis; assay type: cell-based
[14] = system: Epidermal growth factor receptor (Homo sapiens), P00533 [L858R]; experiment: Inhibition of EGFR L858R mutant in human PC9 cells assessed as reduction in AKT phosphorylation incubated for 4 hrs by Western blot analysis; assay type: cell-based
[15] = target: T1, Epidermal growth factor receptor; experiment: Inhibition of EGFR in human NCI-H292 cells assessed as reduction in AKT phosphorylation incubated for 4 hrs by Western blot analysis; assay type: cell-based

T1 sequence (P00533 whole entry): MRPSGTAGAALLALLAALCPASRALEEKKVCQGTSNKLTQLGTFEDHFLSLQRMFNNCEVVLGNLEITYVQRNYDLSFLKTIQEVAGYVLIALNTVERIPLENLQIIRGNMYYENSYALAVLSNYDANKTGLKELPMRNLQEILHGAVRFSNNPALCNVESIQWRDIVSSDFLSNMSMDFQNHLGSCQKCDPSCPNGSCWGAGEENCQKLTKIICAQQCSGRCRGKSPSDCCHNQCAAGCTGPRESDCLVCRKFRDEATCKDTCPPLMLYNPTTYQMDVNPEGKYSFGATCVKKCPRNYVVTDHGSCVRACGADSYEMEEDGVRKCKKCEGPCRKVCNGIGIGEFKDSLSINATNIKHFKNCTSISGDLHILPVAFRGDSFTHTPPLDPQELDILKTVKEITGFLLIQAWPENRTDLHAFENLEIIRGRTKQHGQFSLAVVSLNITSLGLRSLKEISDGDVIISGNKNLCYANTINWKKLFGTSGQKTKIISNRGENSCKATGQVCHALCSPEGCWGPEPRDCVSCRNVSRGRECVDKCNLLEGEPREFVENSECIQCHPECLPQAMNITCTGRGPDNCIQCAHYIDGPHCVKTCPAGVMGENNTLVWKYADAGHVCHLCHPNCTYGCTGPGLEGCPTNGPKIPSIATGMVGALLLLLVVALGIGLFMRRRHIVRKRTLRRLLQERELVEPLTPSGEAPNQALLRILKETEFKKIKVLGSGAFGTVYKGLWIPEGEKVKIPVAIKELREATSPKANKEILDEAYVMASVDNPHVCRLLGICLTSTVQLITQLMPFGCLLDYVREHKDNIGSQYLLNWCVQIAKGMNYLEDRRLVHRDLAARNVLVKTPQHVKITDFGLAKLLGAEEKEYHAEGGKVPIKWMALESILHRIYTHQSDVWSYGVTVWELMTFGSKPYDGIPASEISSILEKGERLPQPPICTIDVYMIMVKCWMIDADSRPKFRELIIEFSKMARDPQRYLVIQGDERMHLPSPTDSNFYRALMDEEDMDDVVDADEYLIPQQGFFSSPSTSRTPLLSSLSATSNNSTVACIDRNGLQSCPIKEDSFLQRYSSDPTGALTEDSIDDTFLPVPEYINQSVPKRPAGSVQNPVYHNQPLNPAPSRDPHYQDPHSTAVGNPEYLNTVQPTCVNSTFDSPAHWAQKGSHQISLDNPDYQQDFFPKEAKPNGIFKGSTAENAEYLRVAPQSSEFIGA
Sequence of Epidermal growth factor receptor (Homo sapiens), P00533 [L858R,T790M] (P00533 whole entry T790M/L858R, looked up): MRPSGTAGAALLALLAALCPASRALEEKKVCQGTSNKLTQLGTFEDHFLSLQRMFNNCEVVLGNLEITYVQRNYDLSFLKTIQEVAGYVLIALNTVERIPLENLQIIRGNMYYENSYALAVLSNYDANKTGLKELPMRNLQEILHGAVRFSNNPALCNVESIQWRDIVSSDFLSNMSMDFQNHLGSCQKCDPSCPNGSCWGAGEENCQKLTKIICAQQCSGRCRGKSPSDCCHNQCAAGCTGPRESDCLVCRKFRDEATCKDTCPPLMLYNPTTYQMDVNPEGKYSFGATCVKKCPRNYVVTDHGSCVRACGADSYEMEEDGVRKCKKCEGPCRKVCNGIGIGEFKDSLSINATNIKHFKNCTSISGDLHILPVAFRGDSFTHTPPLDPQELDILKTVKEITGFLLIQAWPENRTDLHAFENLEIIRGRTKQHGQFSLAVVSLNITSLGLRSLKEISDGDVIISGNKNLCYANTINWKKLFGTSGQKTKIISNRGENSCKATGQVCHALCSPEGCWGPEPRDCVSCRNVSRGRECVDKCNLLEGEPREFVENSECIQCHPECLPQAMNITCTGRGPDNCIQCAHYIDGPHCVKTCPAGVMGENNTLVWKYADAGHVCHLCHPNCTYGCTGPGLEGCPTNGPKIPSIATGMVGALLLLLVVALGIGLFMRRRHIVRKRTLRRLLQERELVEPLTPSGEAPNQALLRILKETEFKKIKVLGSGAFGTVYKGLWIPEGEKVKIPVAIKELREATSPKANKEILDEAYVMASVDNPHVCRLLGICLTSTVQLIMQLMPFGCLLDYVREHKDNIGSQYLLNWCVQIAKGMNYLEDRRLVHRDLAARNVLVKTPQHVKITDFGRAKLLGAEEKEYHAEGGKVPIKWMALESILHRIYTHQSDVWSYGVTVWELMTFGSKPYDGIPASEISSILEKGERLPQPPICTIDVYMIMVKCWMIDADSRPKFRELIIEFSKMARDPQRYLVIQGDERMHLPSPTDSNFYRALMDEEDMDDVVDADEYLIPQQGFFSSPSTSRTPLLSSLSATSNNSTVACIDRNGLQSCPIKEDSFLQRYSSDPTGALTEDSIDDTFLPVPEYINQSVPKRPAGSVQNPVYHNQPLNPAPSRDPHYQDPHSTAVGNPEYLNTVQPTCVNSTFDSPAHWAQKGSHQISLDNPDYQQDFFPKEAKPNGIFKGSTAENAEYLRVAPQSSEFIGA
Sequence of Epidermal growth factor receptor (Homo sapiens), P00533 [L858R] (P00533 whole entry L858R): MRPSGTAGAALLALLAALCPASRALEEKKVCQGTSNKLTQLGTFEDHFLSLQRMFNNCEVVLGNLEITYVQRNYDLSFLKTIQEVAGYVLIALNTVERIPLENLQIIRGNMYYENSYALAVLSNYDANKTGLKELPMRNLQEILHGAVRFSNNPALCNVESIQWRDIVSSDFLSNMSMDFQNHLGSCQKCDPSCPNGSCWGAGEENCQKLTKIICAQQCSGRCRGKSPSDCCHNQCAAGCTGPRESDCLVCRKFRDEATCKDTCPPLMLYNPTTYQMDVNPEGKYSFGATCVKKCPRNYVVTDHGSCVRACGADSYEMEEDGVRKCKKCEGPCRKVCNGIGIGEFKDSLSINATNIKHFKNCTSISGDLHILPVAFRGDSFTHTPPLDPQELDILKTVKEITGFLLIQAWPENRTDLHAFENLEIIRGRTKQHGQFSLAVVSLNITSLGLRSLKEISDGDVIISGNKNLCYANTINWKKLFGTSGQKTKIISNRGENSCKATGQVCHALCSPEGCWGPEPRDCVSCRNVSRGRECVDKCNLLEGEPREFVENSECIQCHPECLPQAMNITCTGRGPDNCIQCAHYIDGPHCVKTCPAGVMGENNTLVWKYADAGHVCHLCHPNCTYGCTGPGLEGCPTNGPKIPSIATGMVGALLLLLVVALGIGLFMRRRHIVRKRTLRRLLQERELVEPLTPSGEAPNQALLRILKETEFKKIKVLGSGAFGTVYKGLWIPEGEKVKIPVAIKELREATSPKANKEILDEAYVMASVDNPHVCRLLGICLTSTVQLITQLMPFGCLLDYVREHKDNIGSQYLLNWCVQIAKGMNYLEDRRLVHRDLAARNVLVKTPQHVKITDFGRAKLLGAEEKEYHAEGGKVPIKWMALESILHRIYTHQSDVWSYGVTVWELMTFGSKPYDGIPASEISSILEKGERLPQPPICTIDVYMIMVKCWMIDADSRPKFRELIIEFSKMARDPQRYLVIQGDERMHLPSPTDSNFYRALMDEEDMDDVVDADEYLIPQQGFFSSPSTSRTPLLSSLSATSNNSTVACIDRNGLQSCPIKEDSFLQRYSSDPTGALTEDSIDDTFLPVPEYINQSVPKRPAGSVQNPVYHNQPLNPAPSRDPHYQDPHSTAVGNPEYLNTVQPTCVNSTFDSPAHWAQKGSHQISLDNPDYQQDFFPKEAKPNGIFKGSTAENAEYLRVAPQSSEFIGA

C=CC(=O)Nc1cc(Nc2nccc(-c3cn(C)c4ccccc34)n2)c(OC)cc1[S+]([O-])CCN(C)C (single isomer, unassigned; (-))
active: Activity [1] Dose-dependent effect | Activity [2] | Activity [3] | Activity [4] | inhibition [5] | inhibition [6] | inhibition [7] | inhibition [8] | inhibition [9] | inhibition [10] | TGI [11] Dose-dependent effect | inhibition [12] Dose-dependent effect | inhibition [13] Dose-dependent effect | inhibition [14] Dose-dependent effect | inhibition [15] Dose-dependent effect
